In EP3895702B1, “DERIVATIVE OF VALPROIC ACID AND DICHLOROACETATE USED FOR THE TREATMENT OF CANCER” (Lietuvos sveikatos mokslu universitetas, priority 2020, dated 2021):

Assays:
[1] = system: glioblastoma U87 MG tumors; test: Invasion of glioblastoma tumor graft into chicken embryo chorioallantoic membrane (CAM) mesenchyme; type: in vivo; conditions: control 90.9%
Procedure: Synergistic effect of VPA and DCA on glioblastoma tumor (GB) graft on chicken embryo chorioallantoic membrane (CAM). […] Invasion into the CAM mesenchyme was detected in 50% of cases with 10 mM NaDCA treatment of GB (A-b and B). […] The incidence of invasion into the CAM mesenchyme was 9.1% in the group treated with the combination of 4 mM VPA and 5 mM DCA (A-c and B).
A - morphological changes of the chorioallantoic membrane in the groups studied: a - tumor formed from glioblastoma U87 MG cells; GB injured the integrity of the chorionic epithelium (ChE) (indicated by arrows) and invaded the CAM mesenchyme; b - GB treated with 10 mM NaDCA; no invasion of the CAM mesenchyme was detected, ChE injury already started (location marked with an arrow); c - GB treated with a combination of 4 mM VPA and 5 mM DCA; GB formed on the CAM surface, ChE integrity damaged (location marked with an arrow), CAM thinned (scale - 200 µm). […] C - fluorescence biomicroscopy of angiogenesis on the 5th day after tumor transplantation on CAM: a - untreated GB tumors, b - GB-4 mM VPA-5 mM DCA group; VPA-DCA treated tumor fluorescence is weaker compared to the control group tumor; a and b-a short arrow indicates the blood vessels attracted by the tumor, long arrow indicates a tumor (scale - 1 mm).

[2] = aqueous solution; cited from earlier work

**Q.** For `O=C([O-])C(Cl)Cl.[Na+]` [NaDCA, Sodium dichloroacetate], which “Invasion into the CAM mesenchyme (cases)” value ([1]; 10 mM NaDCA, n = 14) is on record?
**A.** Its value is 50%.

**Q.** With `CCCC(CCC)C(=O)O` [valproic acid, 2-propyl-pentanoic acid] as the compound, how does the “ionization equilibrium constant Kr” value [2] read?
**A.** The value was 2.2·10^-5.

**Q.** For Magnesium dichloroacetate [MgDCA], which Invasion rate ([1]; 5 mM MgDCA, n = 7) is on record?
**A.** Its Invasion rate is 14.3%.
